Reference: patent publication US4946941A, “Novel glycopeptide antibiotics” (Shionogi & Co., Ltd., priority 1986, dated 1990)
≈ marks a conversion by molar mass, not a printed value.

What was measured:
[1] = test system: Micrococcus luteus ATCC 9341; assay: In vitro antibacterial activity, agar dilution method (MIC); format: cell-based; details: 37° C., 18-20 hrs
Method: (§1) In vitro antibacterial activity was determined by the agar dilution method as described below.
(§2) One loopful of each test bacterium on a slant was inoculated into 1 ml of a growth medium (Trypto Soy Broth, Eiken Chemical Co.) and incubated at 37° C. for 18-20 hours. For the growth of Streptococci, Mueller-Hinton broth (Difco) supplemented with 3%(V/V) horse serum was employed. A hundred-fold dilution of the culture is used as an inoculum suspension of the bacterium.
(§3) The sample (9-10 mg) was weighed and dissolved in distilled water at a concentration of 2 mg/ml.
(§4) A sample solution was subjected to serial two fold dilutions with sterile water (2000-0.25 μg/ml). To sterile plastic petri dishes (9 cm in diameter) was poured 0.5 ml-aliquot of sample solutions, which was mixed with 9.5 ml of an agar medium (Sensitivity Test Agar, "Nissui"). For Streptococci, horse serum was supplied at 0.5%(V/V).
(§5) One loopful (1.0 μl) of the inoculum suspension was placed on the surface of the agar plates prepared as noted above. The bacterial growth was examined visually after overnight incubation (18-20 hrs) at 37° C.

[2] = test system: Staphylococcus aureus 3131 (methicillin resistant); assay: as above; format: cell-based; details: 37° C., 18-20 hrs
Method: as §1, §2, §3, §4, §5

[3] = test system: Staphylococcus aureus ATCC 25923; assay: as above; format: cell-based; details: 37° C., 18-20 hrs
Method: as §1, §2, §3, §4, §5

[4] = test system: Staphylococcus aureus FDA 209F JC-1; assay: as above; format: cell-based; details: 37° C., 18-20 hrs
Method: as §1, §2, §3, §4, §5

[5] = test system: Staphylococcus aureus SMITH; assay: as above; format: cell-based; details: 37° C., 18-20 hrs
Method: as §1, §2, §3, §4, §5

[6] = test system: Staphylococcus aureus SR14 (penicillin resistant); assay: as above; format: cell-based; details: 37° C., 18-20 hrs
Method: as §1, §2, §3, §4, §5

[7] = test system: Staphylococcus aureus SR1626 (methicillin resistant); assay: as above; format: cell-based; details: 37° C., 18-20 hrs
Method: as §1, §2, §3, §4, §5

[8] = test system: Staphylococcus aureus SR3626 (methicillin resistant); assay: as above; format: cell-based; details: 37° C., 18-20 hrs
Method: as §1, §2, §3, §4, §5

[9] = test system: Streptococcus agalactica SR1247; assay: as above; format: cell-based; details: agar dilution with 0.5% horse serum, 37° C., 18-20 hrs
Method: as §1, §2, §3, §4, §5

[10] = test system: Streptococcus faecalis SR1004; assay: as above; format: cell-based; details: agar dilution with 0.5% horse serum, 37° C., 18-20 hrs
Method: as §1, §2, §3, §4, §5

[11] = test system: Streptococcus pneumoniae Type I; assay: as above; format: cell-based; details: agar dilution with 0.5% horse serum, 37° C., 18-20 hrs
Method: as §1, §2, §3, §4, §5

[12] = test system: Streptococcus pyogenes C-203; assay: as above; format: cell-based; details: agar dilution with 0.5% horse serum, 37° C., 18-20 hrs
Method: as §1, §2, §3, §4, §5

[13] = test system: Staphylococcus aureus SMITH; assay: Protective test in mice (in vivo antibacterial activity); details: Staphylococcus aureus SMITH i.p. challenge, Slc-ICR female mice; s.c. 1 and 5 hours post-infection; survival on day 7
Method: (§6) Method: Test bacterium is intraperitoneally challenged to Slc-ICR female mice (8 mice/group), to which PA-42867-A and des-(4-epi-vancosaminyl) PA-42867-A (serial two fold dilution) are subcutaneously administered 1 and 5 hours post-infection.
(§7) Result: ED50 (50% effective dose) is calculated from survival rate of mice on day 7 after the infection.

[14] = test system: Staphylococcus aureus SR2030 (methicillin-resistant); assay: as above; details: Staphylococcus aureus SR2030 (methicillin-resistant) i.p. challenge, Slc-ICR female mice; s.c. 1 and 5 hours post-infection; survival on day 7
Method: as §6, §7

[15] = test system: Streptoccus pyogenes C-302; assay: as above; details: Streptoccus pyogenes C-302 i.p. challenge, Slc-ICR female mice; s.c. 1 and 5 hours post-infection; survival on day 7
Method: as §6, §7

[16] = test system: Streptococcus pneumoniae Type I; assay: as above; details: Streptococcus pneumoniae Type I i.p. challenge, Slc-ICR female mice; s.c. 1 and 5 hours post-infection; survival on day 7
Method: as §6, §7

[17] = Solubility (physicochemical property)
[18] = in ether, benzene, chloroform and ethyl acetate

| Compound | MIC [1] [µg/mL] | MIC [2] [µg/mL] | MIC [3] [µg/mL] | MIC [4] [µg/mL] | MIC [5] [µg/mL] | MIC [6] [µg/mL] | MIC [7] [µg/mL] | MIC [8] [µg/mL] | MIC [9] [µg/mL] | MIC [10] [µg/mL] | MIC [11] [µg/mL] | MIC [12] [µg/mL] | ED50 (50% effective dose) [13] [mg/kg/dose] | ED50 (50% effective dose) [14] [mg/kg/dose] | ED50 (50% effective dose) [15] [mg/kg/dose] | ED50 (50% effective dose) [16] [mg/kg/dose] | Solubility ([17]; in alcohol) | Solubility [17, 18] | Solubility ([17]; in water and dimethylsulfoxide) |
| --- | --- | --- | --- | --- | --- | --- | --- | --- | --- | --- | --- | --- | --- | --- | --- | --- | --- | --- | --- |
| CN[C@H](CC(C)C)C(=O)N[C@H]1C(=O)N[C@@H](CC(N)=O)C(=O)N[C@H]2C(=O)N[C@H]3C(=O)N[C@H](C(=O)N[C@H](C(=O)O)c4cc(O)cc(O)c4-c4cc3ccc4O)[C@H](O[C@H]3C[C@](C)(N)[C@@H](O)[C@H](C)O3)c3ccc(c(Cl)c3)Oc3cc2cc(c3O[C@@H]2O[C@H](CO)[C@@H](O)[C@H](O)[C@H]2O[C@H]2C[C@](C)(N)[C@@H](O)[C@H](C)O2)Oc2ccc(cc2)[C@H]1O [Compd. A, PA-42867-A] | 0.39 (≈ 0.25 µM) | 0.78 (≈ 0.501 µM) | 0.78 (≈ 0.501 µM) | 0.39 (≈ 0.25 µM) | 0.78 (≈ 0.501 µM) | 0.78 (≈ 0.501 µM) | 0.78 (≈ 0.501 µM) | 0.78 (≈ 0.501 µM) | 0.39 (≈ 0.25 µM) | 1.56 (≈ 1 µM) | 0.39 (≈ 0.25 µM) | 0.39 (≈ 0.25 µM) | 0.62 | 2.31 | 0.64 | 0.90 | Slightly soluble | Insoluble | Soluble |
| CN[C@H](CC(C)C)C(=O)N[C@H]1C(=O)N[C@@H](CC(N)=O)C(=O)N[C@H]2C(=O)N[C@H]3C(=O)N[C@H](C(=O)N[C@H](C(=O)O)c4cc(O)cc(O)c4-c4cc3ccc4O)[C@H](O[C@H]3C[C@](C)(N)[C@@H](O)[C@H](C)O3)c3ccc(c(Cl)c3)Oc3cc2cc(c3O[C@@H]2O[C@H](CO)[C@@H](O)[C@H](O)[C@H]2O[C@H]2C[C@H](O)[C@@H](O)[C@H](C)O2)Oc2ccc(cc2)[C@H]1O [Compd. B, PA-42867-B] | 1.56 (≈ 1.01 µM) | 1.56 (≈ 1.01 µM) | 3.13 (≈ 2.03 µM) | 1.56 (≈ 1.01 µM) | 3.13 (≈ 2.03 µM) | 1.56 (≈ 1.01 µM) | 1.56 (≈ 1.01 µM) | 1.56 (≈ 1.01 µM) | 0.78 (≈ 0.505 µM) | 3.13 (≈ 2.03 µM) | 0.78 (≈ 0.505 µM) | 0.78 (≈ 0.505 µM) | – | – | – | – | Slightly soluble | Insoluble | Soluble |
| CN[C@H](CC(C)C)C(=O)N[C@H]1C(=O)N[C@@H](CC(N)=O)C(=O)N[C@H]2C(=O)N[C@H]3C(=O)N[C@H](C(=O)N[C@H](C(=O)O)c4cc(O)cc(O)c4-c4cc3ccc4O)[C@H](O[C@H]3C[C@](C)(N)[C@@H](O)[C@H](C)O3)c3ccc(c(Cl)c3)Oc3cc2cc(c3O[C@@H]2O[C@H](CO)[C@@H](O)[C@H](O)[C@H]2O)Oc2ccc(cc2)[C@H]1O [Compd. C, des-(4-epi-vancosaminyl)-PA-42867-A] | 0.78 (≈ 0.551 µM) | 1.56 (≈ 1.1 µM) | 1.56 (≈ 1.1 µM) | 0.78 (≈ 0.551 µM) | 1.56 (≈ 1.1 µM) | 1.56 (≈ 1.1 µM) | 1.56 (≈ 1.1 µM) | 1.56 (≈ 1.1 µM) | 0.78 (≈ 0.551 µM) | 1.56 (≈ 1.1 µM) | 0.78 (≈ 0.551 µM) | 0.78 (≈ 0.551 µM) | 1.47 | 2.91 | 1.43 | 2.11 | – | – | – |
| CN[C@H](CC(C)C)C(=O)N[C@H]1C(=O)N[C@@H](CC(N)=O)C(=O)N[C@H]2C(=O)N[C@H]3C(=O)N[C@H](C(=O)N[C@H](C(=O)O)c4cc(O)cc(O)c4-c4cc3ccc4O)[C@H](O[C@H]3C[C@](C)(N)[C@@H](O)[C@H](C)O3)c3ccc(c(Cl)c3)Oc3cc2cc(c3O)Oc2ccc(cc2)[C@H]1O [Compd. D, des-(4-epi-vancosaminyl-O-glucosyl)-PA-42867-A] | 0.78 (≈ 0.623 µM) | 0.78 (≈ 0.623 µM) | 1.56 (≈ 1.25 µM) | 0.78 (≈ 0.623 µM) | 0.78 (≈ 0.623 µM) | 0.78 (≈ 0.623 µM) | 0.78 (≈ 0.623 µM) | 0.78 (≈ 0.623 µM) | 0.78 (≈ 0.623 µM) | 0.78 (≈ 0.623 µM) | 0.78 (≈ 0.623 µM) | 0.39 (≈ 0.311 µM) | – | – | – | – | – | – | – |
